Experimental data published in ChEMBL document CHEMBL1201862, “PubChem BioAssay data set” (2004).
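Five concentrations, 48 hours, 96-well plates. Abbreviation: GI50, concentration required for 50% inhibition of growth.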 Calls of active or inactive are those of the source. Cut-off read from the data, not from the text of the source: active = GI50 up to about 1.1 µM and inactive = higher.

Experiments:
Test in all cases: NCI tumour cell line growth inhibition, 48 h
[1] = test system: SK-MEL-2
[2] = test system: UO-31
[3] = test system: IGROV-1
[4] = test system: SF-539
[5] = test system: OVCAR-3
[6] = test system: Hs-578T
[7] = test system: OVCAR-8
[8] = test system: OVCAR-4
[9] = test system: A549
[10] = test system: MOLT-4
[11] = test system: HL-60
[12] = test system: CCRF-CEM
[13] = test system: Malme-3M
[14] = test system: HCT-15
[15] = test system: M14
[16] = test system: NCI/ADR-RES
[17] = test system: HCT-116
[18] = test system: HCC 2998
[19] = test system: RPMI-8226
[20] = test system: NCI-H226
[21] = test system: K562
[22] = test system: SK-OV-3
[23] = test system: SW-620
[24] = test system: OVCAR-5
[25] = test system: SK-MEL-5
[26] = test system: SF-295
[27] = test system: 786-0
[28] = test system: ACHN
[29] = test system: RXF 393
[30] = test system: MDA-MB-435
[31] = test system: COLO 205
[32] = test system: HT-29
[33] = test system: SNB-19
[34] = test system: NCI-H460
[35] = test system: SF-268
[36] = test system: SR
[37] = test system: UACC-257
[38] = test system: TK-10
[39] = test system: EKVX
[40] = test system: HOP-92
[41] = test system: MDA-MB-231
[42] = test system: HOP-62
[43] = test system: UACC-62
[44] = test system: NCI-H522
[45] = test system: BT-549
[46] = test system: CAKI-1
[47] = test system: SK-MEL-28
[48] = test system: U-251
[49] = test system: MCF7
[50] = test system: KM12
[51] = test system: PC-3
[52] = test system: SN12C
[53] = test system: SNB-75
[54] = test system: T47D
[55] = test system: A498
[56] = test system: NCI-H23
[57] = test system: LOX IMVI
[58] = test system: DU-145
[59] = test system: MDA-N

**Q.** How did the GI50 [1] turn out when `N=C(N)c1ccc(/N=N/c2c(O)ccc3cc(O)ccc23)cc1` was run?
**A.** > 100 µM (inactive)

**Q.** And the GI50 [2]?
**A.** > 100 µM (inactive)

**Q.** What about the GI50 [3] of the same compound?
**A.** > 100 µM (inactive)

**Q.** What about the GI50 [4] of the same compound?
**A.** > 100 µM (inactive)

**Q.** And the GI50 [5]?
**A.** > 100 µM (inactive)

**Q.** And the GI50 [6]?
**A.** > 100 µM (inactive)

**Q.** And the GI50 [7]?
**A.** > 100 µM (inactive)

**Q.** And the GI50 [8]?
**A.** > 100 µM (inactive)

**Q.** And the GI50 [9]?
**A.** > 100 µM (inactive)

**Q.** And the GI50 [10]?
**A.** > 100 µM (inactive)

**Q.** What about the GI50 [11] of the same compound?
**A.** > 100 µM (inactive)

**Q.** What about the GI50 [12] of the same compound?
**A.** > 100 µM (inactive)

**Q.** And the GI50 [13]?
**A.** 56.2 µM (inactive)

**Q.** What about the GI50 [14] of the same compound?
**A.** > 100 µM

**Q.** What about the GI50 [15] of the same compound?
**A.** > 100 µM (inactive)

**Q.** And the GI50 [16]?
**A.** > 100 µM (inactive)

**Q.** What about the GI50 [17] of the same compound?
**A.** > 100 µM (inactive)

**Q.** What about the GI50 [18] of the same compound?
**A.** > 100 µM (inactive)

**Q.** And the GI50 [19]?
**A.** > 100 µM (inactive)

**Q.** And the GI50 [20]?
**A.** > 100 µM (inactive)

**Q.** What about the GI50 [21] of the same compound?
**A.** > 100 µM (inactive)

**Q.** What about the GI50 [22] of the same compound?
**A.** > 100 µM (inactive)

**Q.** And the GI50 [23]?
**A.** > 100 µM (inactive)

**Q.** And the GI50 [24]?
**A.** > 100 µM (inactive)

**Q.** What about the GI50 [25] of the same compound?
**A.** > 100 µM (inactive)

**Q.** What about the GI50 [26] of the same compound?
**A.** > 100 µM (inactive)

**Q.** What about the GI50 [27] of the same compound?
**A.** > 100 µM (inactive)

**Q.** And the GI50 [28]?
**A.** > 100 µM (inactive)

**Q.** What about the GI50 [29] of the same compound?
**A.** > 100 µM (inactive)

**Q.** What about the GI50 [30] of the same compound?
**A.** > 100 µM (inactive)

**Q.** What about the GI50 [31] of the same compound?
**A.** > 100 µM (inactive)

**Q.** And the GI50 [32]?
**A.** > 100 µM (inactive)

**Q.** And the GI50 [33]?
**A.** > 100 µM (inactive)

**Q.** And the GI50 [34]?
**A.** > 100 µM (inactive)

**Q.** And the GI50 [35]?
**A.** > 100 µM (inactive)

**Q.** What about the GI50 [36] of the same compound?
**A.** 24.7 µM (inactive)

**Q.** What about the GI50 [37] of the same compound?
**A.** > 100 µM (inactive)

**Q.** And the GI50 [38]?
**A.** > 100 µM (inactive)

**Q.** And the GI50 [39]?
**A.** > 100 µM (inactive)

**Q.** What about the GI50 [40] of the same compound?
**A.** > 100 µM (inactive)

**Q.** What about the GI50 [41] of the same compound?
**A.** > 100 µM (inactive)

**Q.** And the GI50 [42]?
**A.** > 100 µM (inactive)

**Q.** What about the GI50 [43] of the same compound?
**A.** > 100 µM (inactive)

**Q.** And the GI50 [44]?
**A.** > 100 µM (inactive)

**Q.** What about the GI50 [45] of the same compound?
**A.** > 100 µM (inactive)

**Q.** And the GI50 [46]?
**A.** > 100 µM (inactive)

**Q.** What about the GI50 [47] of the same compound?
**A.** > 100 µM (inactive)

**Q.** And the GI50 [48]?
**A.** > 100 µM (inactive)

**Q.** And the GI50 [49]?
**A.** > 100 µM (inactive)

**Q.** What about the GI50 [50] of the same compound?
**A.** > 100 µM (inactive)

**Q.** What about the GI50 [51] of the same compound?
**A.** > 100 µM (inactive)

**Q.** For `CN1CCCOC(c2ccc(Cl)cc2)O1` (configuration not stated), which GI50 [1] is on record?
**A.** > 100 µM (inactive)

**Q.** And the GI50 [2]?
**A.** > 100 µM (inactive)

**Q.** And the GI50 [52]?
**A.** > 100 µM (inactive)

**Q.** And the GI50 [3]?
**A.** > 100 µM (inactive)

**Q.** What about the GI50 [4] of the same compound?
**A.** > 100 µM (inactive)

**Q.** What about the GI50 [5] of the same compound?
**A.** > 100 µM (inactive)

**Q.** What about the GI50 [7] of the same compound?
**A.** > 100 µM (inactive)

**Q.** What about the GI50 [8] of the same compound?
**A.** > 100 µM (inactive)

**Q.** What about the GI50 [9] of the same compound?
**A.** > 100 µM (inactive)

**Q.** What about the GI50 [10] of the same compound?
**A.** > 100 µM (inactive)

**Q.** And the GI50 [12]?
**A.** > 100 µM (inactive)

**Q.** And the GI50 [13]?
**A.** > 100 µM (inactive)

**Q.** And the GI50 [14]?
**A.** > 100 µM

**Q.** And the GI50 [15]?
**A.** > 100 µM (inactive)

**Q.** What about the GI50 [16] of the same compound?
**A.** > 100 µM (inactive)

**Q.** And the GI50 [17]?
**A.** > 100 µM (inactive)

**Q.** And the GI50 [18]?
**A.** > 100 µM (inactive)

**Q.** And the GI50 [20]?
**A.** > 100 µM (inactive)

**Q.** What about the GI50 [21] of the same compound?
**A.** > 100 µM (inactive)

**Q.** What about the GI50 [22] of the same compound?
**A.** > 100 µM (inactive)

**Q.** What about the GI50 [23] of the same compound?
**A.** > 100 µM (inactive)

**Q.** And the GI50 [24]?
**A.** > 100 µM (inactive)

**Q.** And the GI50 [25]?
**A.** > 100 µM (inactive)

**Q.** And the GI50 [26]?
**A.** > 100 µM (inactive)

**Q.** And the GI50 [27]?
**A.** > 100 µM (inactive)

**Q.** And the GI50 [28]?
**A.** > 100 µM (inactive)

**Q.** And the GI50 [29]?
**A.** > 100 µM (inactive)

**Q.** What about the GI50 [30] of the same compound?
**A.** > 100 µM (inactive)

**Q.** What about the GI50 [31] of the same compound?
**A.** > 100 µM (inactive)

**Q.** What about the GI50 [53] of the same compound?
**A.** > 100 µM (inactive)

**Q.** What about the GI50 [32] of the same compound?
**A.** > 100 µM (inactive)

**Q.** And the GI50 [33]?
**A.** > 100 µM (inactive)

**Q.** What about the GI50 [34] of the same compound?
**A.** > 100 µM (inactive)

**Q.** And the GI50 [35]?
**A.** > 100 µM (inactive)

**Q.** What about the GI50 [36] of the same compound?
**A.** > 100 µM (inactive)

**Q.** What about the GI50 [54] of the same compound?
**A.** > 100 µM (inactive)

**Q.** And the GI50 [37]?
**A.** > 100 µM (inactive)

**Q.** What about the GI50 [38] of the same compound?
**A.** > 100 µM (inactive)

**Q.** What about the GI50 [39] of the same compound?
**A.** > 100 µM (inactive)

**Q.** What about the GI50 [55] of the same compound?
**A.** > 100 µM (inactive)

**Q.** What about the GI50 [40] of the same compound?
**A.** 65 µM (inactive)

**Q.** And the GI50 [56]?
**A.** > 100 µM (inactive)

**Q.** And the GI50 [41]?
**A.** > 100 µM (inactive)

**Q.** What about the GI50 [42] of the same compound?
**A.** > 100 µM (inactive)

**Q.** And the GI50 [43]?
**A.** > 100 µM (inactive)

**Q.** What about the GI50 [57] of the same compound?
**A.** > 100 µM (inactive)

**Q.** What about the GI50 [58] of the same compound?
**A.** > 100 µM (inactive)

**Q.** And the GI50 [44]?
**A.** > 100 µM (inactive)

**Q.** What about the GI50 [45] of the same compound?
**A.** > 100 µM (inactive)

**Q.** What about the GI50 [46] of the same compound?
**A.** > 100 µM (inactive)

**Q.** What about the GI50 [59] of the same compound?
**A.** > 100 µM (inactive)

**Q.** And the GI50 [47]?
**A.** > 100 µM (inactive)

**Q.** And the GI50 [48]?
**A.** > 100 µM (inactive)

**Q.** What about the GI50 [49] of the same compound?
**A.** > 100 µM (inactive)

**Q.** And the GI50 [50]?
**A.** > 100 µM (inactive)

**Q.** And the GI50 [51]?
**A.** > 100 µM (inactive)
